Values of other authors as cited in patent publication US20110300232A1, “EFFECTS OF NITRIC OXIDE (NO) AND iNOS ON EXPRESSION AND SIGNAL TRANSDUCTION IN CANCER AND ITS USE IN DRUG DISCOVERY AND CANCER THERAPY DESIGN” (priority 2010, published 2011).

Tests used:
[1] = test system: HIF-α; settings: for effect on HIF-α expression: NO donor exposure, FIG. 4A and 4B, MCF-7
[2] = not given; remark: listed apart in the source
[3] = test system: p53; settings: high levels of NO

CCN(CC)/[N+]([O-])=N/[O-].[Na+] [DEA/NO]
duration of NO level provided in media: only an hour
effect on HIF-α expression [1]: did not regulate HIF-α expression

NCCN(CCN)/[N+]([O-])=N/O [DETA/NO]
duration of NO level provided in media: several hours
effect on HIF-α expression [1]: stabilizing the HIF-α expression

[N]=O [NO, Nitric oxide]
half-life in the body [2]: 1 to 5 s
NO level that stimulates p53 activation, causing apoptosis [3]: more than 500 nm
NO concentration required for HIF-α stabilization ([1]; low concentration of NO): 100-200 nm

NCCCNCCCCN(CCCN)/[N+]([O-])=N/O [Sper/NO]
duration of NO level provided in media: several hours
effect on HIF-α expression [1]: stabilizing the HIF-α expression
